Assay results from patent US4017487A, “7β-(D-5-amino-5-carboxyvaleramido )-7-methoxy-3-substituted-3-cephem-4-carboxylic acid antibiotics” (priority 1974, dated 1977).
Values joined by “and” are separate entries in the source; they are usually repeats but may differ in a detail not shown here. Equal values may be shown once. “Also recorded” adds a separate entry of the source. Read-outs that look alike come from different tables or passages of the source.

Tests used:
Bacillus sp. = experiment: In vitro disc-plate agar diffusion, antibacterial spectrum (7 mm = no zone); type: cell-based; conditions: 16 h, 166 μg/ml, inoculum 5 ml/150 ml, 25° C., read-out: Inhibition Zone Diameter
Bacillus subtilis = experiment: as above; type: cell-based; conditions: 16 h, read-out: Inhibition Zone Diameter
Salmonella gallinarum = experiment: as above; type: cell-based; conditions: Salmonella enterica, 16 h, 166 μg/ml, inoculum 10 ml/150 ml, 25° C., read-out: Inhibition Zone Diameter
Vibrio percolans = experiment: as above; type: cell-based; conditions: Comamonas terrigena, 16 h; 166 μg/ml; inoculum 10 ml/150 ml; 27° C.; read-out: Inhibition Zone Diameter
Xanthomonas vesicatoria = experiment: as above; type: cell-based; conditions: 16 h, read-out: Inhibition Zone Diameter
Escherichia coli strains = experiment: microbe, parasite or virus in culture; type: cell-based; conditions: 16 h, read-out: Inhibition Zone Diameter, 166 μg/ml, Pleocidin-resistant, 37° C.
Aerobacter aerogenes = experiment: In vivo mouse protection test; parameters: species or system white Swiss mice; conditions: s.c. × two doses
Excerpt: (§1) Methods: The method employed in this characterization is as follows: Female white Swiss mice, average weight 20-23 grams, were infected intraperitoneally with 3-20 times the number of organisms calculated to be lethal for 50% of the infected control animals (3-20 LD50 doses). At the time of infection and again six hours later, therapy was given by the designated route. Controls of the virulence of the culture and the toxicity of the antibiotic for uninfected mice were included in the tests. Seven days after infection the test was considered complete and the amount of the antibiotic (I) that would be required to protect 50% of the infected and treated animals was calculated by the method of Knudsen and Curtis; J. Amer. Stat. Assoc. Vol. 42: page 282 (1947).
(§2) The method employed in these studies is the same as described above with regard to the in vivo characterization of 810A. The results of these tests are described below in Table XIb:
(§3) Administration was by subcutaneous injection. At the completion of the test period, usually seven days after administration, the amount of product required to protect 50% of the mice (ED50) from this otherwise fatal injection was calculated: […]

[1] = tested on: Diplococcus pneumoniae 2400; experiment: In vivo mouse protection test; parameters: species or system white Swiss mice; conditions: s.c. × two doses
Excerpt: as §1, §2, §3

Escherichia coli = experiment: In vivo mouse protection test; parameters: species or system white Swiss mice; conditions: s.c. × two doses
Excerpt: as §1, §2, §3

Klebsiella pneumoniae AD = experiment: In vivo mouse protection test; parameters: species or system white Swiss mice; conditions: s.c. × two doses
Excerpt: as §1, §2, §3

Klebsiella pneumoniae B = experiment: In vivo mouse protection test; parameters: species or system white Swiss mice; conditions: s.c. × two doses
Excerpt: as §1, §2, §3

Paracolobactrum arizonae = experiment: In vivo mouse protection test; parameters: species or system white Swiss mice; conditions: s.c. × two doses
Excerpt: as §1, §2, §3

Pasteurella multocida = experiment: In vivo mouse protection test; parameters: species or system white Swiss mice; conditions: s.c. × two doses
Excerpt: as §1, §2, §3

Proteus mirabilis = experiment: In vivo mouse protection test; parameters: species or system white Swiss mice; conditions: s.c. × two doses
Excerpt: as §1, §2, §3

Proteus morganii 3202 = experiment: In vivo mouse protection test; parameters: species or system white Swiss mice; conditions: s.c. × two doses
Excerpt: as §1, §2, §3

Proteus vulgaris = experiment: In vivo mouse protection test; parameters: species or system white Swiss mice; conditions: s.c. × two doses
Excerpt: as §1, §2, §3

[2] = tested on: Salmonella schottmuelleri; experiment: In vivo mouse protection test; parameters: species or system white Swiss mice; conditions: s.c. × two doses
Excerpt: as §1, §2, §3

Salmonella typhosa = experiment: In vivo mouse protection test; parameters: species or system white Swiss mice; conditions: s.c. × two doses
Excerpt: as §1, §2, §3

Proteus morganii 356 [3] = experiment: In vivo mouse protection test, cephalosporin-resistant clinical isolate; parameters: species or system white Swiss mice; conditions: s.c. × 2 doses
Excerpt: as §1
In addition to the aforementioned in vivo trials of the product, a clinical isolate of Proteus morganii 356 which is resistant to cephalosporins and capable of degrading cephalosporin C, was employed in a mouse protection test performed in the same manner as reported above.

[4] = tested on: gram-negative and gram-positive infections; experiment: In vivo protection against infection (general statements); parameters: species or system mice; conditions: for in vivo protection / activity: mouse
Excerpt: as §1
The method employed in these studies is the same as described above with regard to the in vivo characterization of 810A.

[5] = Blood appearance and urinary excretion; conditions: in vivo
cephalosporinases = experiment: Resistance to cephalosporinases; type: biochemical
[6] = tested on: gram-negative and gram-positive bacteria; experiment: Antibacterial activity (general statements); type: cell-based
[7] = Isoelectric point and pH stability; type: physicochemical
[8] = tested on: degradative bacteria / enzymatic degradation; experiment: Resistance to enzymatic degradation / bacterial inactivation (general statements); type: biochemical
Excerpt: Bacterial Inactivation with 810A: An in vitro study was designed to determine the resistance of Antibiotic 810A, to bacterial inactivation as compared with cephalosporin C, cephaloridine and cephalothin.

Proteus morganii 251 = conditions: washed bacterial cells, 4 h, pH 7.5
Proteus morganii 356 [9] = conditions: washed bacterial cells, 4 h, pH 7.5
Proteus mirabilis 241 = conditions: washed bacterial cells, 4 h, pH 7.5
Escherichia coli 236 = experiment: Bacterial inactivation; conditions: four hours; B. subtilis (MB-964); 240 min
Vibrio percolans MB-1272 = experiment: Disc-plate assay using Vibrio percolans; conditions: broth
[10] = tested on: Alcaligenes viscosus (MB-12); experiment: Bacterial inactivation, washed bacterial cells; conditions: 4 hour incubation; assayed on B. subtilis (MB-964) plates

For `CO[C@@]1(NC(=O)CCC[C@@H](N)C(=O)O)C(=O)N2C(C(=O)O)=C(COC(N)=O)CS[C@@H]21` [Example 842A], the zone of inhibition at 166 µg/mL (Bacillus sp.) was 8 mm, the zone of inhibition at 166 µg/mL (Bacillus subtilis) was 13 mm and the zone of inhibition at 166 µg/mL (Salmonella gallinarum) was 21 mm. It also gave a zone of inhibition at 166 µg/mL (Vibrio percolans) of 56 mm, a zone of inhibition at 166 µg/mL (Xanthomonas vesicatoria) of 19 mm and a zone of inhibition at 166 µg/mL (Escherichia coli strains) of 18 mm. The “ED50 by Subcutaneous Route × Two Doses” value (Aerobacter aerogenes) was 49 µg, the “ED50 by Subcutaneous Route × Two Doses” value [1] was 566 µg and the “ED50 by Subcutaneous Route × Two Doses” value (Escherichia coli) was 200 µg. For the same compound, the “ED50 by Subcutaneous Route × Two Doses” value (Klebsiella pneumoniae AD) was 125 µg, the “ED50 by Subcutaneous Route × Two Doses” value (Klebsiella pneumoniae B) was 125 µg and the “ED50 by Subcutaneous Route × Two Doses” value (Paracolobactrum arizonae) was 125 µg. The “ED50 by Subcutaneous Route × Two Doses” value (Pasteurella multocida) was 57 µg, the “ED50 by Subcutaneous Route × Two Doses” value (Proteus mirabilis) was 276 µg and the “ED50 by Subcutaneous Route × Two Doses” value (Proteus morganii 3202) was 276 µg. The “ED50 by Subcutaneous Route × Two Doses” value (Proteus vulgaris) was 51 µg, the “ED50 by Subcutaneous Route × Two Doses” value [2] was 103 µg and the “ED50 by Subcutaneous Route × Two Doses” value (Salmonella typhosa) was 33 µg and 34 µg. For the same compound, the “ED50 by Subcutaneous Route × 2 Doses (average of Two Trials)” value (Proteus morganii 356 [3]) was 273 µg, the “in vivo protection / activity” value [4] was “protects against infection with three species of Proteus, two of Salmonella, one strain of Escherichia coli, two of Klebsiella and also against Paracolobactrum arizonae, Aerobacter aerogenes, Pasteurella multocida and Diplococcus pneumoniae 2400” and the “in vivo protection / activity” value ([4]; listed as Antibiotic 842A) was “effectiveness in vivo on Proteus morganii and an effectiveness against the following gram-negative bacteria: Escherichia coli, Proteus vulgaris, Proteus mirabilis, Proteus morganii, Salmonella schottmuelleri, Klebsiella pneumoniae AD, Klebsiella pneumoniae B, and Paracolobactrum arizonae”. For the same compound, the “oral protection against infections” value ([4]; oral) was “protects against infections due to Paracolobactrum arizonae 3720, Proteus vulgaris 1810, and Salmonella schottmuelleri 3010”, the “appearance in the blood” value [5] was “appears rapidly in the blood” and the resistance to cephalosporinases (cephalosporinases) was “greater resistance to cephalosporinases”. The antibacterial activity [6] was “exhibits activity against Salmonella schottmuelleri 3010, S. gallinarum and S. typhosa; also recorded: inhibits the growth of the following gram-negative bacteria: Escherichia coli, Proteus vulgaris, Alcaligenes faecalis, Brucella bronchiseptica, Salmonella gallinarum, Vibrio percolans and Xanthomonas vesicatoria; also recorded: inhibits the growth of the following gram-positive bacteria: Staphylococcus aureus, Sarcina lutea and Bacillus subtilis”, the antibacterial activity ([6]; listed as Antibiotic 842A) was “enhanced activity against gram-negative microorganisms” and the apparent isoelectric point [7] was roughly 3.5 pH. The pH stability [7] was “unstable above pH 9.0; also recorded: relatively stable at pH 1.5; also recorded: unstable above pH 7”, the “resistance to enzymatic degradation” value ([8]; compared with cephalosporin C) was “more resistant to enzymatic degradation than cephalosporin C” and the “resistance to bacterial inactivation” value ([8]; compared with other cephalosporins) was “more stable than the latter against certain microorganisms; also recorded: more resistant than cephalosporin C to inactivation by A. faecalis, A. viscosus, Escherichia coli 236, Proteus morganii 251, Proteus morganii 236 and Proteus mirabilis 241”. The percent inactivation (Proteus morganii 251) was 80%, the percent inactivation (Proteus morganii 356 [9]) was 69% and the percent inactivation (Proteus mirabilis 241) was 5%. It also gave a percent inactivation (Escherichia coli 236) of 38%, an inhibition zone (Vibrio percolans MB-1272; 1:10 dilution, Example 10) of 21.5 mm and an inhibition zone (Vibrio percolans MB-1272; 4 days, 0.5 inch discs, Example 9) of 33 mm. For the same compound, the inhibition zone (Vibrio percolans MB-1272; four days, 0.5 inch discs, Example 8) was 31.5 mm and the “percent inactivation” value [10] was 54.4%.
